Experimental data reported in patent publication US4083947A, “Organ visualization” (The Radiochemical Centre Limited, priority 1975, dated 1978).
Where two headings read alike, the source gives them in different places.

Columns and labels:
[1] = cited from earlier work
[2] = cited from earlier work; remark: listed apart in the source
[3] = cited from earlier work; remark: listed apart in the source
[4] = Adrenal scanning/visualization in patients, comparison of 75Se compound with 19-iodocholesterol-131I; format: in vivo, humans; conditions: for time after injection at which scans could be taken: p.i.; for dose giving equally good adrenal scans: per kg body weight, adrenal cortex adenomas or hyperplasia
Experimental: (§1) Two patients with Cushing Syndrome were injected intravenously with 500μCi of 6β-methylselenomethyl-19-norcholest-5(10)-en-3β-ol-^75 Se formulated in normal saline stabilized with polysorbate. Repeated gamma camera scans and whole body-, urine- and blood measurements were made during a period of two weeks post injection. In one patient a maximum uptake of 17μCi in the left adrenal region was measured, the removed adrenal cortex adenoma, weight 66 g, containing 15μCi of ^75 Se.
Furthermore, the ^75 Se compound allowed scans to be taken at an earlier point of time after injection than was the case with 19-iodocholesterol-^131 I (2-3 days in contrast to 6-10 days p.i.).

[5] = compared with 19-iodocholesterol-131I; cited from earlier work
[6] = Tissue distribution in a female dog, 6th day post-injection; format: in vivo
Experimental: 250μCi of 6β-methylselenomethyl-19-norcholest-5(10)-en-[…]-^75 Se was intravenously injected into a female dog (13.7 kg). The dog was housed in a metabolism cage for the daily collection of urine and faeces. On the 6th day post-injection the animal was sacrificed (i.v. sodium pento-barbitone)and tissue and organ samples collected. The weighed samples were then assayed for radioactive content.
The resulting tissue distribution (expressed in terms of % dose kg/g) is tabulated below: […]

[7] = Tissue distribution of selenium-75-labelled sterols in rats, sixth day post-injection; format: in vivo, rats of the C.F.Y. strain; conditions: tail vein, dose: 1, 7: 40 μCi, 6: 50 μCi, 3: 30 μCi, 4: 1.5 μCi, 5: 10 μCi, 8: 6.3 μCi
Experimental: The tissue distribution and target to non-target concentration ratios for seven compounds were studied in male and female rats (150-180 g) of the C.F.Y. strain. Each compound (in a volume of 0.3ml) was injected via the tail vein into two male and two female rats. The animals were then housed in separate metabolism cages prior to sacrifice and dissecting on the sixth day post-injection.

[8] = Adrenal uptake of 75Se in patients with Cushing Syndrome (gamma camera scans); format: in vivo, humans
Experimental: as §1

[9] = 250μCi intravenous, female dog, 6th day
[10] = 250μCi intravenous, female dog, daily collection to 6th day

SMILES: C[75Se]C[C@]12CC[C@H](O)CC1=CC[C@@H]1[C@@H]2CC[C@]2(C)[C@@H]([C@H](C)CCCC(C)C)CC[C@@H]12 [19-methylselenocholesterol]
- concentration in / uptake into human adrenal glands [1]: poor
- concentration in the adrenal cortex ([1]; human): appears not to be concentrated in the adrenal cortex
- uptake into pheochromocytomas of human adrenal medullary tissue ([1]; some instances): some instances have been cited of its uptake into pheochromocytomas
- concentration in rat adrenal tissue [2]: concentrated strongly in rat adrenal tissue

SMILES: CC(C)CCC[C@@H](C)[C@H]1CC[C@H]2[C@@H]3CC=C4C[C@@H](O)CC[C@]4(C[131I])[C@H]3CC[C@]12C [19-iodocholesterol-^131 I]
- concentration in / uptake into human adrenal glands [1]: concentrate in the adrenal glands
- concentration in rat adrenal tissue [2]: concentrate in the adrenal glands
- concentration in adrenal glands of dogs [3]: concentrate in the adrenal glands
- time after injection at which scans could be taken [4]: 6 to 10 days
- dose giving equally good adrenal scans [4]: 10-20 μCi/kg

SMILES: CC(C)CCC[C@@H](C)[C@H]1CC[C@H]2[C@@H]3C[C@@H](C[131I])C4=C(CC[C@H](O)C4)[C@H]3CC[C@]12C [^131 I-iodinated rearranged product, 6β-iodomethyl-19-norcholest-5(10)-en-3β-ol]
- effectiveness as adrenal scanning agent [5]: far more effective adrenal scanning agent than 19-iodocholesterol-^131 I

SMILES: C[75Se]C[C@@H]1C[C@@H]2[C@H](CC[C@]3(C)[C@@H]([C@H](C)CCCC(C)C)CC[C@@H]23)C2=C1C[C@@H](O)CC2 [Example 1, 6β-methylselenomethyl-19-norcholest-5(10)-en-3β-ol-^75 Se]
- % dose kg/g, Adrenals [6, 9]: 7.240 % dose kg/g
- % dose kg/g, Bile [6, 9]: 0.485 % dose kg/g
- % dose kg/g, Blood [6, 9]: 0.066 % dose kg/g
- % dose kg/g, Kidneys [6, 9]: 0.175 % dose kg/g
- % dose kg/g, Liver [6, 9]: 0.143 % dose kg/g
- % dose kg/g, Lungs [6, 9]: 0.164 % dose kg/g
- % dose kg/g, Muscle [6, 9]: 0.042 % dose kg/g
- % dose kg/g, Ovaries [6, 9]: 1.571 % dose kg/g
- % dose kg/g, Spleen [6, 9]: 0.083 % dose kg/g
- % dose kg/g, adrenal cortex [6, 9]: 9.925 % dose kg/g
- % of dose, Adrenals [6, 9]: 0.622 % of dose
- % of dose, Blood [6, 9]: 5.989 % of dose
- % of dose, Kidneys [6, 9]: 0.712 % of dose
- % of dose, Liver [6, 9]: 3.894 % of dose
- % of dose, Lungs [6, 9]: 1.136 % of dose
- % of dose, Ovaries [6, 9]: 0.303 % of dose
- % of dose, Spleen [6, 9]: 0.528 % of dose
- % of dose, Total Faeces [6, 10]: 27.691 % of dose
- % of dose, Total Urine [6, 10]: 1.953 % of dose
- concentration in the adrenal cortex ([6]; dogs): concentrates in the adrenal cortex
- % dose kg./g. in Ovaries ([7]; female rats): 2.356 % dose kg./g.
- % dose kg./g. in Adrenals ([7]; male and female rats): 9.885 % dose kg./g.
- % dose kg./g. in Blood ([7]; male and female rats): 0.024 % dose kg./g.
- % dose kg./g. in Kidneys ([7]; male and female rats): 0.116 % dose kg./g.
- % dose kg./g. in Liver ([7]; male and female rats): 0.054 % dose kg./g.
- % dose kg./g. in Muscle ([7]; male and female rats): 0.023 % dose kg./g.
- % dose kg./g. in Testes ([7]; male rats): 0.044 % dose kg./g.
- Concentration Ratio; Adrenals: Kidneys ([7]; rats): 91.9
- Concentration Ratio; Adrenals: Liver ([7]; rats): 163.9
- Concentration Ratio; Adrenals: Muscle ([7]; rats): 436.7
- Concentration Ratio; Adrenals: Ovaries ([7]; rats): 4.5
- Concentration Ratio; Adrenals: Testes ([7]; rats): 211.9
- Concentration Ratio; Adrenals: Blood ([7]; rats, 8640 min): 433.1
- 75Se uptake per gram of tissue in the adrenal adenoma ([8]; compared with 19-iodocholesterol-131I in five other adrenal cortex adenomas): higher than that of 19-iodocholesterol-^131 I
- concentration in the adrenal glands ([8]; humans): concentrate in the adrenal glands of humans
- maximum uptake in the left adrenal region ([8]; one patient with Cushing Syndrome, 500μCi intravenous, two weeks of scans): 17 μCi
- 75Se uptake in each of both adrenal regions ([8]; other patient with Cushing Syndrome, 500μCi intravenous): 3 μCi
- 75Se contained in removed adrenal cortex adenoma ([8]; same patient, adenoma weight 66 g, 500μCi intravenous): 15 μCi
- quality of adrenal scans compared with 19-iodocholesterol-131I ([4]; comparable cases with adrenal cortex adenomas or hyperplasia, smaller dose): equally good adrenal scans
- visualization of adrenal glands and detection of adrenal cortex adenomas ([4]; humans): enabling their visualization and the detection of adrenal cortex adenomas
- time after injection at which scans could be taken [4]: 2 to 3 days
- dose giving equally good adrenal scans [4]: 7 μCi/kg
